In US5583115A, “Dialkyltiacumicin compounds” (Abbott Laboratories, priority 1995, dated 1996):
Converted amounts (≈) assume the structure as drawn.

Key:
E. coli = assay: MIC agar dilution, aerobic and facultative bacteria; format: cell-based
Bacteriodes fragilis = assay: MIC agar dilution, anaerobic bacteria; format: cell-based
B. vulgatus = assay: MIC agar dilution, anaerobic bacteria; format: cell-based
B. disiens = assay: MIC agar dilution, anaerobic bacteria; format: cell-based; conditions: Culture # 1763
B. thetaiotaomicron = assay: MIC agar dilution, anaerobic bacteria; format: cell-based
B. loescheii = assay: MIC agar dilution, anaerobic bacteria; format: cell-based; conditions: Culture # 1767
B. bivius = assay: MIC agar dilution, anaerobic bacteria; format: cell-based; conditions: Culture # 2483
Fusobacterium nucleatum = assay: MIC agar dilution, anaerobic bacteria; format: cell-based; conditions: Culture # 2478
Fusobacterium species = assay: MIC agar dilution, anaerobic bacteria; format: cell-based; conditions: Culture # 1770
Veillonella parvula = assay: MIC agar dilution, anaerobic bacteria; format: cell-based; conditions: Culture # 2479
Propionibacterium acnes = assay: MIC agar dilution, anaerobic bacteria; format: cell-based; conditions: Culture # 1775
[1] = system: Peptostreptococcus asaccharolyticus; assay: MIC agar dilution, anaerobic bacteria; format: cell-based; conditions: Culture # 1777
P. magnus = assay: MIC agar dilution, anaerobic bacteria; format: cell-based; conditions: Culture # 1778
P. species = assay: MIC agar dilution, anaerobic bacteria; format: cell-based; conditions: Culture # 1776
P. anaerobius = assay: MIC agar dilution, anaerobic bacteria; format: cell-based; conditions: Culture # 1780
Clostridium perfringens = assay: microbe, parasite or virus in culture; format: cell-based
C. ramosum = assay: MIC agar dilution, anaerobic bacteria; format: cell-based; conditions: Culture # 2482
C. difficile = assay: MIC agar dilution, anaerobic bacteria; format: cell-based
Staphylococcus aureus = assay: MIC agar dilution, aerobic and facultative bacteria
S. epidermidis = assay: as above; conditions: Culture # 1666
Enterococcus faecium = assay: as above; conditions: Culture # 1668
Streptococcus bovis = assay: as above; conditions: Culture # 1699
Streptococcus agalactiae = assay: as above; conditions: Culture # 1670
S. pyogenes = assay: as above
Micrococcus luteus = assay: as above
Enterobacter aerogenes = assay: as above; conditions: Culture # 1677
Klebsiella pneumoniae = assay: as above; conditions: Culture # 2518
Providencia stuartii = assay: as above; conditions: Culture # 1831
Pseudomonas aeruginosa = assay: as above
P. cepacia = assay: as above; conditions: Culture # 1684
[2] = system: Acinetobacter calcoaceticus; assay: as above; conditions: Culture # 1845
Candida albicans = assay: as above; conditions: Culture # 3622
Mycobacterium smegmatis = assay: as above; conditions: Culture # 5171
Nocardia asteroides = assay: as above; conditions: Culture # 5173

Compound: CCc1c(Cl)c(O)c(Cl)c(O)c1C(=O)O[C@H]1[C@H](O)[C@H](OC)[C@H](OC/C2=C\C=C\C[C@H](O)/C(C)=C/[C@H](CC)[C@@H](O[C@@H]3OC(C)(C)[C@@H](OC(=O)C(C)C)[C@H](O)[C@@H]3O)/C(C)=C/C(C)=C/C[C@@H]([C@@H](C)O)OC2=O)O[C@@H]1C [Tiacumicin B, tiacumicin B]
- MIC (E. coli; DC-2, Culture # 1674): > 100 µg/mL
- MIC (E. coli; H560, Culture # 1675): > 100 µg/mL
- MIC (E. coli; Juhl, Culture # 1673): > 100 µg/mL
- MIC (E. coli; KNK437, Culture # 1676): > 100 µg/mL
- MIC (E. coli; SS, Culture # 2489): > 100 µg/mL
- MIC (Bacteriodes fragilis; Culture # 1756, Wilkins-Chalgren agar, 37° C., 48 hours): > 128 µg/mL
- MIC (Bacteriodes fragilis; Culture # 1757): > 128 µg/mL
- MIC (Bacteriodes fragilis; Culture # 1758): > 128 µg/mL
- MIC (Bacteriodes fragilis; Culture # 1999): > 128 µg/mL
- MIC (B. vulgatus; Culture # 1762): > 128 µg/mL
- MIC (B. vulgatus; Culture # 2481): > 128 µg/mL
- MIC (B. disiens): 32 µg/mL (≈ 30.2 µM)
- MIC (B. thetaiotaomicron; Culture # 1764): > 128 µg/mL
- MIC (B. thetaiotaomicron; Culture # 1765): > 128 µg/mL
- MIC (B. thetaiotaomicron; Culture # 1766): > 128 µg/mL
- MIC (B. loescheii): 64 µg/mL (≈ 60.5 µM)
- MIC (B. bivius): 128 µg/mL (≈ 121 µM)
- MIC (Fusobacterium nucleatum): > 128 µg/mL
- MIC (Fusobacterium species): > 128 µg/mL
- MIC (Veillonella parvula): 64 µg/mL (≈ 60.5 µM)
- MIC (Propionibacterium acnes): 4 µg/mL (≈ 3.78 µM)
- MIC [1]: 1 µg/mL (≈ 0.945 µM)
- MIC (P. magnus): 0.5 µg/mL (≈ 0.473 µM)
- MIC (P. species): 32 µg/mL (≈ 30.2 µM)
- MIC (P. anaerobius): 0.008 µg/mL (≈ 0.00756 µM)
- MIC (Clostridium perfringens; Culture # 1771): 0.008 µg/mL (≈ 0.00756 µM)
- MIC (Clostridium perfringens; Culture # 1772): 0.03 µg/mL (≈ 0.0284 µM)
- MIC (Clostridium perfringens; Culture # 1773): 0.008 µg/mL (≈ 0.00756 µM)
- MIC (C. ramosum): > 128 µg/mL
- MIC (C. difficile; Culture # 1496): 0.06 µg/mL (≈ 0.0567 µM)
- MIC (C. difficile; Culture # 1497): 0.06 µg/mL (≈ 0.0567 µM)
- MIC (C. difficile; Culture # 1774): 0.03 µg/mL (≈ 0.0284 µM)
- MIC (C. difficile; Culture # 2025): 0.06 µg/mL (≈ 0.0567 µM)
- MIC (C. difficile; Culture # 2480): 0.06 µg/mL (≈ 0.0567 µM)
- MIC (C. difficile; Culture # 2528): 0.06 µg/mL (≈ 0.0567 µM)
- MIC (C. difficile; Culture # 2529): 0.06 µg/mL (≈ 0.0567 µM)
- MIC (Staphylococcus aureus; Culture # 1662, brain heart infusion agar, 37° C., 20 hours): 6.2 µg/mL (≈ 5.86 µM)
- MIC (Staphylococcus aureus; Culture # 1664): 6.2 µg/mL (≈ 5.86 µM)
- MIC (Staphylococcus aureus; Culture # 1690): 12.5 µg/mL (≈ 11.8 µM)
- MIC (Staphylococcus aureus; Culture # 2124): 6.2 µg/mL (≈ 5.86 µM)
- MIC (Staphylococcus aureus; Culture # 2130): 12.5 µg/mL (≈ 11.8 µM)
- MIC (Staphylococcus aureus; Culture # 2498): 6.2 µg/mL (≈ 5.86 µM)
- MIC (Staphylococcus aureus; cipro res., Culture # 3384): 12.5 µg/mL (≈ 11.8 µM)
- MIC (S. epidermidis): 3.1 µg/mL (≈ 2.93 µM)
- MIC (Enterococcus faecium): 6.2 µg/mL (≈ 5.86 µM)
- MIC (Streptococcus bovis): 25 µg/mL (≈ 23.6 µM)
- MIC (Streptococcus agalactiae): 12.5 µg/mL (≈ 11.8 µM)
- MIC (S. pyogenes; Culture # 1671): 25 µg/mL (≈ 23.6 µM)
- MIC (S. pyogenes; const., Culture # 1672): 3.1 µg/mL (≈ 2.93 µM)
- MIC (S. pyogenes; inducible, Culture # 2548): 6.2 µg/mL (≈ 5.86 µM)
- MIC (Micrococcus luteus; Culture # 2493): 0.1 µg/mL (≈ 0.0945 µM)
- MIC (Micrococcus luteus; Culture # 2517): 0.2 µg/mL (≈ 0.189 µM)
- MIC (Enterobacter aerogenes): > 100 µg/mL
- MIC (Klebsiella pneumoniae): > 100 µg/mL
- MIC (Providencia stuartii): > 100 µg/mL
- MIC (Pseudomonas aeruginosa; Culture # 1679): > 100 µg/mL
- MIC (Pseudomonas aeruginosa; Culture # 1680): > 100 µg/mL
- MIC (Pseudomonas aeruginosa; Culture # 1681): > 100 µg/mL
- MIC (Pseudomonas aeruginosa; Culture # 1682): 12.5 µg/mL (≈ 11.8 µM)
- MIC (Pseudomonas aeruginosa; cipro R, Culture # 1919): > 100 µg/mL
- MIC (Pseudomonas aeruginosa; cipro R, Culture # 1920): > 100 µg/mL
- MIC (P. cepacia): > 100 µg/mL
- MIC [2]: > 100 µg/mL
- MIC (Candida albicans): > 100 µg/mL
- MIC (Mycobacterium smegmatis): 12.5 µg/mL (≈ 11.8 µM)
- MIC (Nocardia asteroides): 0.39 µg/mL (≈ 0.369 µM)
